Experimental data from ChEMBL document CHEMBL2057064, “Activation of human RNase L by 2'- and 5'-O-methylphosphonate-modified oligoadenylates” (Bioorg Med Chem Lett, 2012).
pEC50: −log10 of the molar value. Calls of active or inactive are those of the source. No cut-off for these calls is given here.

biological target: T1, 2-5A-dependent ribonuclease (Homo sapiens, UniProt Q05823); experiment: (§1) Activation of human RNase L expressed in Escherichia coli BL21 (DE3) cells assessed as RNA cleavage using Cy5-rC11-UU-C7-BHQ2 as substrate by FRET assay
T1 sequence (Q05823 whole entry): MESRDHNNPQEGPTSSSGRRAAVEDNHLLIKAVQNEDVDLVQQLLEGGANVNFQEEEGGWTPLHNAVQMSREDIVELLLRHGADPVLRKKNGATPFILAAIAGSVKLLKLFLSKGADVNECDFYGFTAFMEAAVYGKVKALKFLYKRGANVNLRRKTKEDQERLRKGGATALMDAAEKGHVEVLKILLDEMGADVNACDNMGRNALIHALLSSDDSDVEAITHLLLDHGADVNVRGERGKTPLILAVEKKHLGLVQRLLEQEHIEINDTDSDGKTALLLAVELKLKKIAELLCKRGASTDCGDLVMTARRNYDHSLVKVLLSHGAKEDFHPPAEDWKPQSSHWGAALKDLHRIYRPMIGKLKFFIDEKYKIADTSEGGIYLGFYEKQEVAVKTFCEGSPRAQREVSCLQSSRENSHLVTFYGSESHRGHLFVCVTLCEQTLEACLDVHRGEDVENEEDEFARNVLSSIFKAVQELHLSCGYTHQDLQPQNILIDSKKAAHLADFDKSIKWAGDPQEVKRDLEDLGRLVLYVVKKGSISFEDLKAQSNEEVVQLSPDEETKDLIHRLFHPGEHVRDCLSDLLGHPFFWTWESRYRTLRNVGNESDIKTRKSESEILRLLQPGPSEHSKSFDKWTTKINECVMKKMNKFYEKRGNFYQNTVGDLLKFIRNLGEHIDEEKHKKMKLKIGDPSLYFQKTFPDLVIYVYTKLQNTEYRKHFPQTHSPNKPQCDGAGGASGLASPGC

| Structure (SMILES) | pEC50 |
| --- | --- |
| Nc1ncnc2c1ncn2[C@@H]1O[C@H](COP(=O)(O)CO[C@@H]2[C@H](O)[C@@H](COP(=O)(O)O[C@@H]3[C@H](O)[C@@H](COP(=O)(O)O[C@@H]4[C@H](O)[C@@H](COP(=O)(O)O)O[C@H]4n4cnc5c(N)ncnc54)O[C@H]3n3cnc4c(N)ncnc43)O[C@H]2n2cnc3c(N)ncnc32)[C@@H](O)[C@H]1O | 6.70 |
| Nc1ncnc2c1ncn2[C@@H]1O[C@H](COP(=O)(O)O[C@@H]2[C@H](O)[C@@H](COP(=O)(O)O[C@@H]3[C@@H](O)[C@@H](COCP(=O)(O)O[C@@H]4[C@H](O)[C@@H](COP(=O)(O)O)O[C@H]4n4cnc5c(N)ncnc54)O[C@H]3n3cnc4c(N)ncnc43)O[C@H]2n2cnc3c(N)ncnc32)[C@@H](O)[C@H]1O | < 6.00 |
| Nc1ncnc2c1ncn2[C@@H]1O[C@H](COP(=O)(O)CO[C@@H]2[C@@H](O)[C@@H](COP(=O)(O)O[C@@H]3[C@H](O)[C@@H](COP(=O)(O)O[C@@H]4[C@H](O)[C@@H](COP(=O)(O)O)O[C@H]4n4cnc5c(N)ncnc54)O[C@H]3n3cnc4c(N)ncnc43)O[C@H]2n2cnc3c(N)ncnc32)[C@@H](O)[C@H]1O | < 6.00 |
| Nc1ncnc2c1ncn2[C@@H]1O[C@H](COP(=O)(O)O[C@H]2[C@H](O)[C@@H](COCP(=O)(O)O[C@@H]3[C@H](O)[C@@H](COP(=O)(O)O[C@@H]4[C@H](O)[C@@H](COP(=O)(O)O)O[C@H]4n4cnc5c(N)ncnc54)O[C@H]3n3cnc4c(N)ncnc43)O[C@H]2n2cnc3c(N)ncnc32)[C@@H](O)[C@H]1O | < 6.00 |
| Nc1ncnc2c1ncn2[C@@H]1O[C@H](COP(=O)(O)O[C@@H]2[C@H](O)[C@@H](COP(=O)(O)O[C@@H]3[C@H](O)[C@@H](COP(=O)(O)O[C@@H]4[C@H](O)[C@@H](COP(=O)(O)O)O[C@H]4n4cnc5c(N)ncnc54)O[C@H]3n3cnc4c(N)ncnc43)O[C@H]2n2cnc3c(N)ncnc32)[C@@H](O)[C@H]1O | 7.77 |
| Nc1ncnc2c1ncn2[C@@H]1O[C@H](COP(=O)(O)O[C@@H]2[C@H](O)[C@@H](COP(=O)(O)O[C@H]3[C@H](O)[C@@H](COCP(=O)(O)O[C@@H]4[C@H](O)[C@@H](COP(=O)(O)O)O[C@H]4n4cnc5c(N)ncnc54)O[C@H]3n3cnc4c(N)ncnc43)O[C@H]2n2cnc3c(N)ncnc32)[C@@H](O)[C@H]1O | < 6.00 |
| Nc1ncnc2c1ncn2[C@@H]1O[C@H](COP(=O)(O)O[C@@H]2[C@H](O)[C@@H](COP(=O)(O)CO[C@@H]3[C@@H](O)[C@@H](COP(=O)(O)O[C@@H]4[C@H](O)[C@@H](COP(=O)(O)O)O[C@H]4n4cnc5c(N)ncnc54)O[C@H]3n3cnc4c(N)ncnc43)O[C@H]2n2cnc3c(N)ncnc32)[C@@H](O)[C@H]1O | < 6.00 |
| Nc1ncnc2c1ncn2[C@@H]1O[C@H](COP(=O)(O)O[C@@H]2[C@H](O)[C@@H](COP(=O)(O)CO[C@H]3[C@H](O)[C@@H](COP(=O)(O)O[C@@H]4[C@H](O)[C@@H](COP(=O)(O)O)O[C@H]4n4cnc5c(N)ncnc54)O[C@H]3n3cnc4c(N)ncnc43)O[C@H]2n2cnc3c(N)ncnc32)[C@@H](O)[C@H]1O | < 6.00 |
| Nc1ncnc2c1ncn2[C@@H]1O[C@H](COP(=O)(O)O[C@@H]2[C@H](O)[C@@H](COP(=O)(O)O[C@@H]3[C@H](O)[C@@H](COP(=O)(O)CO[C@H]4[C@H](O)[C@@H](COP(=O)(O)O)O[C@H]4n4cnc5c(N)ncnc54)O[C@H]3n3cnc4c(N)ncnc43)O[C@H]2n2cnc3c(N)ncnc32)[C@@H](O)[C@H]1O | < 6.00 |
| Nc1ncnc2c1ncn2[C@@H]1O[C@H](COP(=O)(O)O[C@@H]2[C@H](O)[C@@H](COP(=O)(O)CO[C@@H]3[C@H](O)[C@@H](COP(=O)(O)O[C@@H]4[C@H](O)[C@@H](COP(=O)(O)O)O[C@H]4n4cnc5c(N)ncnc54)O[C@H]3n3cnc4c(N)ncnc43)O[C@H]2n2cnc3c(N)ncnc32)[C@@H](O)[C@H]1O | < 6.00 |
| Nc1ncnc2c1ncn2[C@@H]1O[C@H](COP(=O)(O)O[C@@H]2[C@H](O)[C@@H](COP(=O)(O)O[C@@H]3[C@H](O)[C@@H](COP(=O)(O)CO[C@@H]4[C@H](O)[C@@H](COP(=O)(O)O)O[C@H]4n4cnc5c(N)ncnc54)O[C@H]3n3cnc4c(N)ncnc43)O[C@H]2n2cnc3c(N)ncnc32)[C@@H](O)[C@H]1O | < 6.00 |
| Nc1ncnc2c1ncn2[C@@H]1O[C@H](COP(=O)(O)O[C@@H]2[C@H](O)[C@@H](COP(=O)(O)O[C@@H]3[C@H](O)[C@@H](COP(=O)(O)O[C@@H]4[C@H](O)[C@@H](COCP(=O)(O)O)O[C@H]4n4cnc5c(N)ncnc54)O[C@H]3n3cnc4c(N)ncnc43)O[C@H]2n2cnc3c(N)ncnc32)[C@@H](O)[C@H]1O | 7.28 |

biological target: T2, 2-5A-dependent ribonuclease (Homo sapiens) (UniProt Q05823); experiment: as §1
T2 sequence (whole entry): T1 sequence (Q05823 whole entry)

| Structure (SMILES) | Activity |
| --- | --- |
| Nc1ncnc2c1ncn2[C@@H]1O[C@H](COP(=O)(O)CO[C@@H]2[C@H](O)[C@@H](COP(=O)(O)O[C@@H]3[C@H](O)[C@@H](COP(=O)(O)O[C@@H]4[C@H](O)[C@@H](COP(=O)(O)O)O[C@H]4n4cnc5c(N)ncnc54)O[C@H]3n3cnc4c(N)ncnc43)O[C@H]2n2cnc3c(N)ncnc32)[C@@H](O)[C@H]1O | Active |

biological target: T2, 2-5A-dependent ribonuclease (Homo sapiens); experiment: Antagonist activity at human RNase L expressed in Escherichia coli BL21 (DE3) cells assessed as RNA cleavage using Cy5-C11-rUU-C7-BHQ2 as substrate by FRET assay in presence of natural activator pAAAA; type: functional

| Structure (SMILES) | inhibition |
| --- | --- |
| Nc1ncnc2c1ncn2[C@@H]1O[C@H](COP(=O)(O)CO[C@H]2[C@H](O)[C@@H](COP(=O)(O)CO[C@H]3[C@H](O)[C@@H](COP(=O)(O)O[C@@H]4[C@H](O)[C@@H](COP(=O)(O)O)O[C@H]4n4cnc5c(N)ncnc54)O[C@H]3n3cnc4c(N)ncnc43)O[C@H]2n2cnc3c(N)ncnc32)[C@@H](O)[C@H]1O | inactive |
| Nc1ncnc2c1ncn2[C@@H]1O[C@H](COP(=O)(O)CO[C@H]2[C@H](O)[C@@H](COP(=O)(O)O[C@@H]3[C@H](O)[C@@H](COP(=O)(O)CO[C@H]4[C@H](O)[C@@H](COP(=O)(O)O)O[C@H]4n4cnc5c(N)ncnc54)O[C@H]3n3cnc4c(N)ncnc43)O[C@H]2n2cnc3c(N)ncnc32)[C@@H](O)[C@H]1O | inactive |
| Nc1ncnc2c1ncn2[C@@H]1O[C@H](COP(=O)(O)O[C@H]2[C@H](O)[C@@H](COCP(=O)(O)O[C@@H]3[C@H](O)[C@@H](COP(=O)(O)O[C@H]4[C@H](O)[C@@H](COCP(=O)(O)O)O[C@H]4n4cnc5c(N)ncnc54)O[C@H]3n3cnc4c(N)ncnc43)O[C@H]2n2cnc3c(N)ncnc32)[C@@H](O)[C@H]1O | inactive |
| Nc1ncnc2c1ncn2[C@@H]1O[C@H](COCP(=O)(O)O[C@H]2[C@H](O)[C@@H](COCP(=O)(O)O[C@@H]3[C@H](O)[C@@H](COP(=O)(O)O[C@H]4[C@H](O)[C@@H](COCP(=O)(O)O)O[C@H]4n4cnc5c(N)ncnc54)O[C@H]3n3cnc4c(N)ncnc43)O[C@H]2n2cnc3c(N)ncnc32)[C@@H](O)[C@@H]1O | inactive |
| Nc1ncnc2c1ncn2[C@@H]1O[C@H](COP(=O)(O)O[C@@H]2[C@H](O)[C@@H](COP(=O)(O)CO[C@@H]3[C@H](O)[C@@H](COP(=O)(O)CO[C@@H]4[C@H](O)[C@@H](COP(=O)(O)O)O[C@H]4n4cnc5c(N)ncnc54)O[C@H]3n3cnc4c(N)ncnc43)O[C@H]2n2cnc3c(N)ncnc32)[C@@H](O)[C@H]1O | inactive |
| Nc1ncnc2c1ncn2[C@@H]1O[C@H](COP(=O)(O)CO[C@@H]2[C@H](O)[C@@H](COP(=O)(O)CO[C@@H]3[C@H](O)[C@@H](COP(=O)(O)CO[C@@H]4[C@H](O)[C@@H](COP(=O)(O)O)O[C@H]4n4cnc5c(N)ncnc54)O[C@H]3n3cnc4c(N)ncnc43)O[C@H]2n2cnc3c(N)ncnc32)[C@@H](O)[C@H]1O | inactive |
| Nc1ncnc2c1ncn2[C@@H]1O[C@H](COCP(=O)(O)O[C@@H]2[C@H](O)[C@@H](COCP(=O)(O)O[C@@H]3[C@H](O)[C@@H](COP(=O)(O)O[C@@H]4[C@H](O)[C@@H](COCP(=O)(O)O)O[C@H]4n4cnc5c(N)ncnc54)O[C@H]3n3cnc4c(N)ncnc43)O[C@H]2n2cnc3c(N)ncnc32)[C@@H](O)[C@H]1O | inactive |
| Nc1ncnc2c1ncn2[C@@H]1O[C@H](COP(=O)(O)CO[C@@H]2[C@@H](O)[C@@H](COP(=O)(O)O[C@@H]3[C@H](O)[C@@H](COP(=O)(O)CO[C@@H]4[C@@H](O)[C@@H](COP(=O)(O)O)O[C@H]4n4cnc5c(N)ncnc54)O[C@H]3n3cnc4c(N)ncnc43)O[C@H]2n2cnc3c(N)ncnc32)[C@@H](O)[C@H]1O | inactive |
| Nc1ncnc2c1ncn2[C@@H]1O[C@H](COP(=O)(O)CO[C@@H]2[C@@H](O)[C@@H](COP(=O)(O)CO[C@@H]3[C@@H](O)[C@@H](COP(=O)(O)CO[C@@H]4[C@@H](O)[C@@H](COP(=O)(O)O)O[C@H]4n4cnc5c(N)ncnc54)O[C@H]3n3cnc4c(N)ncnc43)O[C@H]2n2cnc3c(N)ncnc32)[C@@H](O)[C@H]1O | inactive |
| Nc1ncnc2c1ncn2[C@@H]1O[C@H](COP(=O)(O)O[C@@H]2[C@H](O)[C@@H](COP(=O)(O)CO[C@H]3[C@H](O)[C@@H](COP(=O)(O)CO[C@H]4[C@H](O)[C@@H](COP(=O)(O)O)O[C@H]4n4cnc5c(N)ncnc54)O[C@H]3n3cnc4c(N)ncnc43)O[C@H]2n2cnc3c(N)ncnc32)[C@@H](O)[C@H]1O | inactive |
| Nc1ncnc2c1ncn2[C@@H]1O[C@H](COP(=O)(O)CO[C@@H]2[C@@H](O)[C@@H](COP(=O)(O)CO[C@@H]3[C@@H](O)[C@@H](COP(=O)(O)O[C@@H]4[C@H](O)[C@@H](COP(=O)(O)O)O[C@H]4n4cnc5c(N)ncnc54)O[C@H]3n3cnc4c(N)ncnc43)O[C@H]2n2cnc3c(N)ncnc32)[C@@H](O)[C@H]1O | inactive |
